Measured values reported in patent US10167262B2, “Herbicidal substituted 3-arylpyrazoles” (FMC CORPORATION, priority 2014, dated 2019).

Legend:
Type in all cases: in vivo
[1] = tested on: large (Lg) crabgrass (Digitaria sanguinalis); assay: Test E pre-/postemergence greenhouse test, plant response rating 0-100; conditions: Preemergence, scale 0 to 100
[2] = tested on: green foxtail (Setaria viridis); assay: as above; conditions: Preemergence, scale 0 to 100
[3] = tested on: goosegrass (Eleusine indica); assay: as above; conditions: Preemergence, scale 0 to 100
[4] = tested on: johnsongrass (Sorghum halepense); assay: as above; conditions: Preemergence, scale 0 to 100
[5] = tested on: cocklebur (common cocklebur, Xanthium strumarium); assay: as above; conditions: Preemergence, 500 g ai/ha, scale 0 to 100
In short: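 Rated visually against controls 14-21 days after treatment on a 0-100 scale (100 = complete control). Pre- and postemergence sprays used a non-phytotoxic solvent mixture with surfactant. Preemergence seeds were in silt loam; postemergence plants were in peat-based medium at the 1- to 4-leaf stage (2-18 cm).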

[6] = tested on: morningglory (Ipomoea coccinea); assay: as above; conditions: Preemergence, scale 0 to 100
[7] = tested on: yellow nutsedge (Cyperus esculentus); assay: as above; conditions: Preemergence, scale 0 to 100
[8] = tested on: smartweed (ladysthumb smartweed, Polygonum persicaria); assay: as above; conditions: scale 0 to 100; for Smartweed plant response rating: Preemergence
[9] = tested on: waterhemp_RES1, (ALS & Triazine resistant common waterhemp, Amaranthus rudis); assay: Test E postemergence greenhouse test, plant response rating 0-100; conditions: scale 0 to 100
In short: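 Visual ratings, 0 (no effect) to 100 (complete control), made versus controls 14–21 days after postemergence application in the greenhouse. Plants were at 1- to 4-leaf stage (2–18 cm) in peat moss/vermiculite potting medium.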

SMILES | Crabgrass, Large plant response rating ([1]; 31 g ai/ha) | Crabgrass, Large plant response rating ([1]; 62 g ai/ha) | Crabgrass, Large plant response rating ([1]; 125 g ai/ha) | Crabgrass, Large plant response rating ([1]; 250 g ai/ha) | Crabgrass, Large plant response rating ([1]; 500 g ai/ha) | Foxtail, Green plant response rating ([2]; 31 g ai/ha) | Foxtail, Green plant response rating ([2]; 62 g ai/ha) | Foxtail, Green plant response rating ([2]; 125 g ai/ha) | Foxtail, Green plant response rating ([2]; 250 g ai/ha) | Foxtail, Green plant response rating ([2]; 500 g ai/ha) | Goosegrass plant response rating ([3]; 31 g ai/ha) | Goosegrass plant response rating ([3]; 62 g ai/ha) | Goosegrass plant response rating ([3]; 125 g ai/ha) | Goosegrass plant response rating ([3]; 250 g ai/ha) | Goosegrass plant response rating ([3]; 500 g ai/ha) | Johnsongrass plant response rating ([4]; 31 g ai/ha) | Johnsongrass plant response rating ([4]; 62 g ai/ha) | Johnsongrass plant response rating ([4]; 125 g ai/ha) | Johnsongrass plant response rating ([4]; 250 g ai/ha) | Johnsongrass plant response rating ([4]; 500 g ai/ha) | further results
O=C(c1ccccc1)c1cn(S(=O)(=O)CCl)nc1-c1cc(Cl)cc(Cl)c1 [Compound 1] | 0 | 0 | 0 | 0 | 0 | 0 | 0 | 0 | 0 | 15 | 0 | 0 | 0 | 0 | 0 | 0 | 0 | 0 | 20 | 20 | Cocklebur plant response rating [5]: 0; Morningglory plant response rating ([6]; 31 g ai/ha): 0; Morningglory plant response rating ([6]; 62 g ai/ha): 0; Morningglory plant response rating ([6]; 125 g ai/ha): 0; Morningglory plant response rating ([6]; 250 g ai/ha): 0; Morningglory plant response rating ([6]; 500 g ai/ha): 0; Nutsedge, Yellow plant response rating ([7]; 31 g ai/ha): 0; Nutsedge, Yellow plant response rating ([7]; 62 g ai/ha): 0; Nutsedge, Yellow plant response rating ([7]; 125 g ai/ha): 0; Nutsedge, Yellow plant response rating ([7]; 250 g ai/ha): 0; Plant response rating, Smartweed ([8]; Postemergence, 500 g ai/ha): 85; Smartweed plant response rating ([8]; 31 g ai/ha): 0; Smartweed plant response rating ([8]; 125 g ai/ha): 98; Smartweed plant response rating ([8]; 250 g ai/ha): 98; Smartweed plant response rating ([8]; 500 g ai/ha): 98
COC(OC)(c1ccccc1)c1c[nH]nc1-c1cc(Cl)cc(Cl)c1 [Compound 13, 3-(3,5-dichlorophenyl)-4-(dimethoxyphenylmethyl)-1H-pyrazole] | – | – | – | – | – | – | – | – | – | – | – | – | – | – | – | – | – | – | – | – | Plant response rating, Waterhemp_RES1 ([9]; 125 g ai/ha): 90; Plant response rating, Waterhemp_RES1 ([9]; 500 g ai/ha): 100
CCOC(OCC)(c1ccccc1)c1c[nH]nc1-c1cc(Cl)cc(Cl)c1 [Compound 14, 3-(3,5-dichlorophenyl)-4-(diethoxyphenylmethyl)-1H-pyrazole] | – | – | – | – | – | – | – | – | – | – | – | – | – | – | – | – | – | – | – | – | Plant response rating, Waterhemp_RES1 ([9]; 31 g ai/ha): 90; Plant response rating, Waterhemp_RES1 ([9]; 62 g ai/ha): 95; Plant response rating, Waterhemp_RES1 ([9]; 125 g ai/ha): 95; Plant response rating, Waterhemp_RES1 ([9]; 250 g ai/ha): 100; Plant response rating, Waterhemp_RES1 ([9]; 500 g ai/ha): 100
COCC(=O)n1cc(C(=O)c2ccccc2)c(-c2cc(Cl)cc(Cl)c2)n1 [Compound 16, 1-[4-benzoyl-3-(3,5-dichlorophenyl)-1H-pyrazol-1-yl]-2-methoxyethanone] | 0 | 0 | 0 | 0 | 0 | 0 | 0 | 0 | 0 | 0 | 0 | 0 | 0 | 40 | 50 | 0 | 0 | 0 | 0 | 30 | Morningglory plant response rating ([6]; 31 g ai/ha): 0; Morningglory plant response rating ([6]; 62 g ai/ha): 20; Morningglory plant response rating ([6]; 125 g ai/ha): 20; Morningglory plant response rating ([6]; 250 g ai/ha): 0; Morningglory plant response rating ([6]; 500 g ai/ha): 40; Nutsedge, Yellow plant response rating ([7]; 31 g ai/ha): 0; Nutsedge, Yellow plant response rating ([7]; 62 g ai/ha): 20; Nutsedge, Yellow plant response rating ([7]; 125 g ai/ha): 35; Nutsedge, Yellow plant response rating ([7]; 250 g ai/ha): 0; Nutsedge, Yellow plant response rating ([7]; 500 g ai/ha): 0; Smartweed plant response rating ([8]; 31 g ai/ha): 0; Smartweed plant response rating ([8]; 62 g ai/ha): 0; Smartweed plant response rating ([8]; 125 g ai/ha): 100; Smartweed plant response rating ([8]; 250 g ai/ha): 100; Smartweed plant response rating ([8]; 500 g ai/ha): 100
